Assays:
[1] = tested on: active (GTP-bound) K-RAS in A549 cells; assay: K-RAS activation (GTP pull down) assay with immunoblotting; format: cell-based
Procedure: Further, a K-RAS activation assay with subsequent immunoblotting has been carried out. […] Cells were lysed in lysis buffer, adjusted the volume of each sample to 1 mL with 1× Assay Lysis Buffer, 40 μL of the Raf1 RBD Agarose bead slurry were added to each sample quickly, follow by incubating the tubes at 4° C. for 1 hour with gentle agitation, beads were washed three times with cold lysis buffer, and bounded protein was resuspended in 40 μL of 2× reducing SDS-PAGE sample buffer and heated at 100° C. for 5 min. The samples were then run by SDS-PAGE followed by immunoblotting. Total amount of RAS being pulled down were compared between the control and treatment groups.
The compound of Formula (VII) inhibited K-RAS binding to GTP in A549 cells.

[2] = tested on: human pancreatic ductal adenocarcinoma cells; details: in vitro and in vivo; cited from earlier work
[3] = tested on: A549 (K-RAS G12S) cells; assay: MTT cell viability assay, 72 h; format: cell-based; details: Homo sapiens
Procedure: (§1) A549 (K-RAS^G12S), H358 (K-RAS^G12C), H2122 (K-RAS^G12C) and CCD19-Lu cells were obtained from the American Type Culture Collection and cultured in an environment of 5% CO2 at 37° C. in RPMI-1640 medium supplemented with 10% fetal bovine serum (FBS), 100 units/mL penicillin, and 100 μg/mL streptomycin.
(§2) 3000 cells were seeded on 96-well plates, cultured overnight for cell adhesion, then treated with DMSO or various concentrations of compound of Formula (VII) for 72 h, at the end of the incubation, each well was added with 10 μL of MTT (5 mg/mL; Sigma), and the plates were incubated for an additional 4 h, then the crystals were dissolved in 100 μL of the resolved solution (10% SDS and 0.1 mM HCL). The absorbance at 570 nm was measured using a microplate reader (Tecan, Morrisville, N.C., USA). The cell viability was calculated relative to untreated controls, with results based on at least three independent experiments. […] The IC50 in CCD19-Lu is more than 20 μM (Table 1).

[4] = tested on: H2122 (K-RAS G12C) cells; assay: MTT cell viability assay, 72 h; format: cell-based; details: Homo sapiens, NCI-H2122
Procedure: as §1, §2

[5] = tested on: H358 (K-RAS G12C) cells; assay: MTT cell viability assay, 72 h; format: cell-based; details: Homo sapiens, NCI-H358
Procedure: as §1, §2

[6] = tested on: normal lung epithelial cells (CCD19-Lu); assay: MTT cell viability assay, 72 h; format: cell-based; details: Homo sapiens, CCD 19Lu
Procedure: as §1, §2

[7] = tested on: A549 cells; assay: Annexin V-FITC/PI apoptosis assay by flow cytometry; format: cell-based; details: A549, 2.5 μM, 5 μM or 10 μM, 48 h, compared with control group
Procedure: Apoptosis was measured using the Annexin V-FITC apoptosis detection kit (BD Biosciences, San Jose, Calif., USA), according to the manufacturer protocol. […] Subsequently, cells were trypsinized, washed with PBS and stained with 100 μL binding buffer containing 2 μL Annexin-V FITC and 5 μL propidine iodide (PI) incubated in the dark at room temperature for 15 min, before further addition of 400 μL of 1× Annexin-binding buffer. The stained cells were analyzed quantitatively using a Flow Cytometer (BD Biosciences, San Jose, Calif., USA). Data were analyzed by Flow Jo software.

[8] = tested on: A549 cells; assay: Colony formation assay; format: cell-based; details: 10 days
Procedure: Still further, the inhibitory effect of the compound of Formula (VII) on the colony formation in A549 cells has been analyzed to provide further evidence that the compound of Formula (VII) inhibits the formation of colonies of cancerous cells to an exceptional degree, too. A549 cells were seeded on a six-well plate at a density of 500 cells per well. […] After 10 days, the colonies were fixed with 4% paraformaldehyde and stained with a 0.5% (0.5% w/v) crystal violet solutions, the number of colonies >50 was counted under a dissecting microscope.

[9] = tested on: p-C-raf, pErk, pAkt in A549 cells; assay: Western blot of signaling pathways downstream to K-RAS; format: cell-based; details: A549, 2.5 μM, 5 μM and 10 μM, compared with untreated cells
Procedure: Equal amounts of protein (20-40 μg per lane) were separated with a 10% SDS-PAGE gel, then the separated proteins were transferred to a Nitrocellulose (NC) membrane, which was then exposed to 5% non-fat dry milk in TBS containing 0.1% Tween 20 (0.1% TBST) for 1 hour at room temperature with constant agitation, followed by overnight incubation at 4° C. with primary antibodies, after washing three times by TBST, the membranes were incubated with secondary rabbit or mouse fluorescent antibodies, the signal intensity of the membranes was detected by anLI-COR Odessy scanner (Belfast, Me., USA). All primary antibodies were diluted 1:1000, while their recommended secondary antibodies were diluted 1:10000.

IC50 [3]	IC50 [4]	IC50 [5]	Compound	GTP binding with K-RAS ([1]; A549, 4 μM, positive control)	proliferation of human pancreatic ductal adenocarcinoma cells [2]	IC50 [6]	cell apoptosis [7]	colony formation capacity ([8]; A549, 1.25 μM, 2.5 μM, 5 μM or 10 μM)	colonies formed ([8]; A549, 10 μM)	level of p-C-raf [9]	level of pAkt [9]	level of pErk [9]	amount of K-RAS being pulled down (GTP-bound K-RAS) ([1]; A549, 10 μM, 48 h, compared to untreated control)
			c1ccc(Cn2c(-c3ccc(OC[C@H](C4CCNCC4)n4c(-c5ccccc5)nc5ccccc54)cc3)nc3ccccc32)cc1 [Deltarasin, reference compound]	suppression	strongly suppressed								
5.59 ± 1.27 µM	3.35 ± 2.74 µM	2.4 ± 2.1 µM	CC(C)(C)c1cc2oc3c(c2c(/C=N/NC(=O)c2ccc(O)cc2O)c1O)CCCC3 [compound of Formula (VII)]			> 20 µM	induced significant cell apoptosis	significantly inhibited	no visible colonies	decreased	decreased	decreased	caused a decrease

Source: patent US20170135979A1, “PDE-DELTA INHIBITOR FOR THE TREATMENT OF CANCER” (Macau University of Science and Technology, priority 2015, published 2017)
